These results are taken from ChEMBL document CHEMBL1123022, “S-(nitrocarbobenzoxy)glutathiones: potent competitive inhibitors of mammalian glyoxalase II” (J Med Chem, 1985).

Molecules are shown by their SMILES.

Assay [1] concerns the target Hydroxyacylglutathione hydrolase, mitochondrial (Rattus norvegicus) (UniProt O35952). As to the kind of experiment: […] inhibitory activity against rat liver glyoxalase II.
Assay [2] concerns the target Hydroxyacylglutathione hydrolase, mitochondrial (Rattus norvegicus, UniProt O35952). Put plainly: Binding affinity towards rat liver glyoxalase II.
Assay [3] addresses T1, Lactoylglutathione lyase (Rattus norvegicus) (UniProt Q6P7Q4).
T1 sequence (whole entry): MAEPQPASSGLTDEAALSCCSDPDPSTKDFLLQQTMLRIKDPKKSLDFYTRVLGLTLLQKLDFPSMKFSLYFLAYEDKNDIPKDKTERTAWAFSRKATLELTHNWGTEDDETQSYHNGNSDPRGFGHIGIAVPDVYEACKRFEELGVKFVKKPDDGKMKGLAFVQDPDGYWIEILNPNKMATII
Put plainly: […] inhibitory activity against rat liver glyoxalase I.

The Ki is a dissociation constant, usually derived from enzyme kinetics or from competition with a known ligand. Higher therefore signals a looser hold on the target. Regarding `NC(CCC(=O)NC(CSC(=O)OCc1cccc([N+](=O)[O-])c1)C(=O)NCC(=O)O)C(=O)O` (centres undefined), the [I] 0.5 in assay [1] amounted to 15 µM. In addition, the affinity in assay [2] corresponds to a Ki of 9 µM.

`NC(CCC(=O)NC(CSC(=O)OCc1ccccc1)C(=O)NCC(=O)O)C(=O)O` (centres undefined) yielded a [I] 0.5 in assay [1] of 165 µM. The compound also yielded an inhibition constant Ki in assay [2] of 65 µM.

In assay [1], `NC(CCC(=O)NC(CSC(=O)OCc1ccccc1[N+](=O)[O-])C(=O)NCC(=O)O)C(=O)O` (centres undefined) yielded a [I] 0.5 of 20 µM. Besides, the Ki in assay [2] is 15 µM.

As to `NC(CCC(=O)NC(CSC(=O)OCc1ccc([N+](=O)[O-])cc1)C(=O)NCC(=O)O)C(=O)O` (centres undefined), the [I] 0.5 in assay [1] amounted to 12 µM; in assay [3], 925 µM. In addition, the Ki in assay [2] was 6.5 µM.
